Test results: US11279703B2, “Fused pyrimidine compounds as BRD4 and JAK2 dual inhibitors and methods for use thereof” (APTOSE BIOSCIENCES INC., priority 2016, dated 2022)
pIC50: −log10 of the molar value.

Experiments:
[1] = target: BRD4-BD2 (Homo sapiens (Human), UniProt O60885); assay: AlphaLisa bromodomain binding assay, BRD4-BD2; settings: Table 6; read-out: BRD4(2) IC50
Excerpt: (§1) An AlphaLisa assay was used to observe bromodomain binding and measure IC50s for the compounds disclosed herein. An AlphaLisa assay is a bead-based assay used to detect interactions between bromodomains and polyacetylated histone peptides. Donor and acceptor beads bound to target and ligand are brought into proximity by this protein-protein interaction.
(§2) Equipment Required • 1. […] Plate centrifuge • 3. Plate shaker • 4. […] Single channel and multi-channel pipettes • 6. Microplate reader (Pherastar)
(§3) Stock and Final Assay Concentrations (FAC) • 1. All reference and test compounds are made at a concentration of 10 mM in DMSO. Compounds are serially diluted in DMSO and a FAC starting from 10 μM to 10 point 3 fold serial dilutions is arrived. FAC of DMSO is 1%. • 2. Enzyme stock and FAC
(§4) Biotinylated substrate (Acetylated histone H4, biotinylated substrate—cat no. AS64989-025, Anaspec) stock and FAC
(§5) • 4. Acceptor and donor beads stock and FAC
(§6) Buffers • For the enzyme and substrate dilution following buffer is used (for 50 ml) • HEPES: 50 mM 2.5 ml • NaCl: 25 mM 1.25 ml • DTT: 10 mM 0.05 ml • BSA: 0.1% 0.05 g • MilliQ water: 45.7 ml • For dilution of acceptor and donor beads AlphaLISA 5× epigenetics Buffer Perkin Elmer (Cat: AL008C) is used at 1× concentration.
(§7) Procedure • 1. […] Tap the plate gently • 3. […] Cover with plate sealer • 5. […] Incubate the plate at room temperature for 10 minutes • 7. Add 10 μl of the substrate • 8. Cover with plate sealer • 9. […] Cover with plate sealer • 14. […] Cover with plate sealer • 18.
(§8) The percent inhibition is calculated in the excel analysis template and the IC50 values are subsequently determined using a sigmoidal dose-response curve (variable slope) using GraphPad Prism® 5 software.

[2] = target: JAK1 (Homo sapiens (Human), UniProt P23458); assay: HTRF kinase assay, JAK1; assay type: biochemical; settings: Table 6
Excerpt: (§9) A kinase assay with HTRF was used to observe JAK activity and calculate the IC50s of compounds disclosed herein. HTRF is an enzymatic assay used to determine the amount of phosphorylated peptide. FRET (Fluorescence Resonance Energy Transfer) is based on the transfer of energy between two fluorophores—a donor and an acceptor—when in close proximity. Molecular interactions between biomolecules can be assessed by coupling each partner with a fluorescent label and by detecting the level of energy transfer. The amount of phopshorylated peptide can be detected using a combination of a Eu 3+Cryptate labeled anti-phospho residue antibody, SA-XL665 and a biotinylated substrate. The signal is proportional to the concentration of phospho-residues.
(§10) Equipment Required • 1. […] Plate centrifuge • 3. Plate shaker • 4. […] Single channel and multi-channel pipettes • 6. Microplate reader (Pherastar)]
as §3, with “arrived. For Ruxolitinib the starting FAC is 1 μM.” for “arrived.”
(§11) • JAK-1: Invtirogen Cat: PR8767C • JAK-2: Invtirogen Cat: PR7820B • JAK-3: Invtirogen Cat: PR7507B • 3. Substrate (synthetic peptide-Biotinylated-N-terminal tag-[…] from Biopeptide) stock and FAC
(§12) • Adenosine 5′-triphosphate disodium salt hydrate: Sigma Cat: A26209 • 5. […] Buffers • Base buffer (for 50 ml)
(§13) • HTRF buffer: • 50 mM Tris-HCl, pH—7.5 • 100 mM NaCl • 0.1% BSA • 0.05% Tween20 • 0.5 mM EDTA
(§14) To a 384 well black-plate: • 1. Add 17 μL of the buffer to each well of the 384-well black plate • 2. […] Add 5 μl of the enzyme to each well of the plate • 4. Add 10 μl of the substrate and ATP mix to all the wells • 5. Cover with plate sealer • 6. […] Incubate at room temperature for 1 hour on shaker • 8. […] Add 37.5 μL of the HTRF mix to these wells. • 9. Incubate the plate at room temperature on shaker for 45 minutes. • 10.
as §8

[3] = target: JAK2 (Homo sapiens (Human), UniProt O60674); assay: HTRF kinase assay, JAK2; assay type: biochemical; settings: Table 6
[4] = target: BRD4-BD1 (Homo sapiens (Human), UniProt O60885); assay: AlphaLisa bromodomain binding assay, BRD4-BD1; settings: Table 6; read-out: BRD4(1) IC50
[5] = target: BRD2-BD1 (Homo sapiens (Human), UniProt P25440); assay: AlphaLisa bromodomain binding assay, BRD2-BD1; settings: Table 6; read-out: BRD2(1) IC50
Excerpt: as §1, §2, §3, §4, §5, §6, §7, §8

[6] = target: BRDT-BD1 (Homo sapiens (Human), UniProt Q58F21); assay: AlphaLisa bromodomain binding assay, BRDT-BD1; settings: Table 6; read-out: BRDT(1) IC50
Excerpt: as §1, §2, §3, §4, §5, §6, §7, §8

[7] = target: BRD3-BD1 (Homo sapiens (Human), UniProt Q15059); assay: AlphaLisa bromodomain binding assay, BRD3-BD1; settings: Table 6; read-out: BRD3(1) IC50
Excerpt: as §1, §2, §3, §4, §5, §6, §7, §8

[8] = target: JAK3 (Homo sapiens (Human), UniProt P52333); assay: HTRF kinase assay, JAK3; assay type: biochemical; settings: Table 6
Excerpt: as §9, §10
as §3, with “arrived. For Ruxolitinib the starting FAC is 1 μM.” for “arrived.”
as §11, §12, §13, §14, §8

JAK3, sequence (P52333 whole entry): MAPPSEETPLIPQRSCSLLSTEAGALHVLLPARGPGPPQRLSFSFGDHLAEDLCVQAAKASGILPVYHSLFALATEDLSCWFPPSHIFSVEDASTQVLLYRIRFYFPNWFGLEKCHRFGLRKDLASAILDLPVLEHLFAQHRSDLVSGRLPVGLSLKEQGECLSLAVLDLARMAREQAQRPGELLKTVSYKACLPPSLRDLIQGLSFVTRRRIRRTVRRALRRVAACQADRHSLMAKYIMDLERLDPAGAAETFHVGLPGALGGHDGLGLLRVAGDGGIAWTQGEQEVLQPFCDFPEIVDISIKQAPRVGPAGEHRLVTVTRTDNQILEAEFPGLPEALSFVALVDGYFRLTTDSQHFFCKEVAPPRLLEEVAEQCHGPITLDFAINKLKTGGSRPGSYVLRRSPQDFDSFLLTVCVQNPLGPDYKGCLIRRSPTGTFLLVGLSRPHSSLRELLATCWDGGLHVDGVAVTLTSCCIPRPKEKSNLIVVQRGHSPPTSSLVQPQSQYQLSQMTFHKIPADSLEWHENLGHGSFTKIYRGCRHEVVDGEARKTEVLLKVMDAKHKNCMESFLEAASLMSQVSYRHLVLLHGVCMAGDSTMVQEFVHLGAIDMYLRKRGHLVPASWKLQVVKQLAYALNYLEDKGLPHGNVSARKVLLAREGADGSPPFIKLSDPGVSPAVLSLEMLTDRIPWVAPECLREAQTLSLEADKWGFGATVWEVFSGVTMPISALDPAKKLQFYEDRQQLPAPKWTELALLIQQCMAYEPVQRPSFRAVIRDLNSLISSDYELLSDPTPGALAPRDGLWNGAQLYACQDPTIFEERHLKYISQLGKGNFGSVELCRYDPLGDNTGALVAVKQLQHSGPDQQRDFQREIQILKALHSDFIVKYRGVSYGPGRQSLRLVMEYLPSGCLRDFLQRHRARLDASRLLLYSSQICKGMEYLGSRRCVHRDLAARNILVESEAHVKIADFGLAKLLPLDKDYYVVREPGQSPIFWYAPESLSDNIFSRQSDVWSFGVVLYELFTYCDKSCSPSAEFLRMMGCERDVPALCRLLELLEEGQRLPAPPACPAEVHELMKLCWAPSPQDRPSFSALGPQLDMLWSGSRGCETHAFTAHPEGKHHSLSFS
JAK1, sequence (P23458 whole entry): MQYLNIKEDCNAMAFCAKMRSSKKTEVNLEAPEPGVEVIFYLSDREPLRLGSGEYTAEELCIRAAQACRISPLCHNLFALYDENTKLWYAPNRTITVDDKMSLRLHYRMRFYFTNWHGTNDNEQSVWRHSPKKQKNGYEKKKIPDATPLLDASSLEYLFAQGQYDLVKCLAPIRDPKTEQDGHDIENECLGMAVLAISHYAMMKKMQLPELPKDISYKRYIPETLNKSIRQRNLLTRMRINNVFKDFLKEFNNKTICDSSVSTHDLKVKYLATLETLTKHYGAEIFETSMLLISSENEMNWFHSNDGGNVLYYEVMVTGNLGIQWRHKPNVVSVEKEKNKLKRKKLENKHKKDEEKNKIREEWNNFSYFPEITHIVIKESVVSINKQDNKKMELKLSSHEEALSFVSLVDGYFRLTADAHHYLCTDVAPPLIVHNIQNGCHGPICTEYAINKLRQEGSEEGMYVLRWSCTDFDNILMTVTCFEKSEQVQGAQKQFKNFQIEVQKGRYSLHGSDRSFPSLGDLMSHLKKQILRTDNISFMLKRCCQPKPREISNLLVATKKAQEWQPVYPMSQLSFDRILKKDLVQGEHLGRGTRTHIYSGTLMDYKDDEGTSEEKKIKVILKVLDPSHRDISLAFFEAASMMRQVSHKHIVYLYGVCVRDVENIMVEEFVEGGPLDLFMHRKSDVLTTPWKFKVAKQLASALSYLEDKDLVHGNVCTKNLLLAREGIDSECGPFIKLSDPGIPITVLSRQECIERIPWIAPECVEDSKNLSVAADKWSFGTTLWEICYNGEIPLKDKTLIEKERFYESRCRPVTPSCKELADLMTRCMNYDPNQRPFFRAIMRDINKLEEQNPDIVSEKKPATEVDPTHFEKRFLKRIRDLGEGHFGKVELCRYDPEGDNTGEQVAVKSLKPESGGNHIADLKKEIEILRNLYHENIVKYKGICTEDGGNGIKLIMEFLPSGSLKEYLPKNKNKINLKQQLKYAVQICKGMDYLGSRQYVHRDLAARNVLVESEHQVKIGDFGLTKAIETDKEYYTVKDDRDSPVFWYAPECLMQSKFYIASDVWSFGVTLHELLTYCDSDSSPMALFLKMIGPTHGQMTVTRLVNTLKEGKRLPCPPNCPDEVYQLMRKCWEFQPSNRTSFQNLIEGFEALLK
BRD2-BD1, sequence (P25440 74-180): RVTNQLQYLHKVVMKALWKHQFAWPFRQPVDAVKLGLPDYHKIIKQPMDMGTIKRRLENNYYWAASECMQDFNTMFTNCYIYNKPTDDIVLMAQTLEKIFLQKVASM
JAK2, sequence (O60674 whole entry): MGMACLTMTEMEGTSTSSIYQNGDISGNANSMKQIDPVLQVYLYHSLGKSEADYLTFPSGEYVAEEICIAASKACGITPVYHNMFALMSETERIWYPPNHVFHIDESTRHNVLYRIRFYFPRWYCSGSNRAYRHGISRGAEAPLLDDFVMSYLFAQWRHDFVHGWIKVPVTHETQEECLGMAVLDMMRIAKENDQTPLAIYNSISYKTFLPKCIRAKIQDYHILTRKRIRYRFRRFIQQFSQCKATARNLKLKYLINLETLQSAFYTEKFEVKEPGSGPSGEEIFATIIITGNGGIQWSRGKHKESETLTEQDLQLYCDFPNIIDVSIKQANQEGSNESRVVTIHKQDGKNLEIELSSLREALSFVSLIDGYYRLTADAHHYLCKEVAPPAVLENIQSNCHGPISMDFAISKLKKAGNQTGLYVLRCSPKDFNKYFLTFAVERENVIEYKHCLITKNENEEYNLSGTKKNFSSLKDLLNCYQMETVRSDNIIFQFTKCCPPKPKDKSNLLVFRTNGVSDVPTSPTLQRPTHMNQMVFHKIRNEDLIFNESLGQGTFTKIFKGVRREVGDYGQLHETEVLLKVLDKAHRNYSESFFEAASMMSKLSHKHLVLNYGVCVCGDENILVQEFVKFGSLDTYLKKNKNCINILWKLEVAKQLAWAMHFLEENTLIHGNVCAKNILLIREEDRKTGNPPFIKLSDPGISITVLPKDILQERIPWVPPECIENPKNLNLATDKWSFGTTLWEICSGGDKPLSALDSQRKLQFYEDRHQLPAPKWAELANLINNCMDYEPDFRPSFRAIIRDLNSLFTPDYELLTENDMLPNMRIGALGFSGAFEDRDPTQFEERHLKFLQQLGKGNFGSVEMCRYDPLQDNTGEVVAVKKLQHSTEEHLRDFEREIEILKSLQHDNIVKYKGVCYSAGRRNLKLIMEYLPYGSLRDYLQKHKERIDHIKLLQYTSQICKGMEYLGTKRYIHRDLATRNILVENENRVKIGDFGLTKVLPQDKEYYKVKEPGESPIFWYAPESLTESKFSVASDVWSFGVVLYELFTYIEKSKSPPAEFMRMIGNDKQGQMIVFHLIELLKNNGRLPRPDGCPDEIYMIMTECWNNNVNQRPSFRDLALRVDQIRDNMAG
BRD3-BD1, sequence (Q15059 34-140): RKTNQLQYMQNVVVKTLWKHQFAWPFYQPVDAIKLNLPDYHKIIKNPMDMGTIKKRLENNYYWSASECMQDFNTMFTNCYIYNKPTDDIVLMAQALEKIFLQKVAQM

Row | SMILES | pIC50 [1] | pIC50 [2] | pIC50 [3] | pIC50 [4] | pIC50 [5] | pIC50 [6] | pIC50 [7] | pIC50 [8]
1 | CN(C)C1CCN(c2ccc(Nc3ncc4ccn(-c5ccc(F)c(NS(=O)(=O)C(C)(C)C)c5)c4n3)cc2F)CC1 [drawing 366] | 7.06 | 5.68 | 7.57 | 7.20 | 6.64 | 6.85 | 7.31 | 6.71
2 | CN(C)C1CCN(C(=O)c2ccc(Nc3ncc4ccn(-c5cccc(NS(=O)(=O)C(C)(C)C)c5)c4n3)cc2F)CC1 | 7.54 | 5.96 | 7.70 | 6.61 | 6.50 | 6.72 | 6.93 | 6.53
3 | CC(C)(C)S(=O)(=O)Nc1cccc(-n2ccc3cnc(Nc4ccc(N5CCNCC5)cc4)nc32)c1 [drawing 283] | 6.60 | 6.38 | 7.92 | 6.82 | 5.80 | 6.20 | 6.30 | 7.17
4 | CNC1CCN(c2ccc(Nc3ncc4scc(-c5ccc(F)c(NS(=O)(=O)C(C)(C)C)c5)c4n3)cc2F)CC1 [drawing 458] | 7.04 | 5.92 | 8.00 | 6.72 | 6.17 | 6.65 | 6.81 | 7.09
5 | CN1CCC(NC(=O)c2ccc(Nc3ncc4ccn(-c5cccc(NS(=O)(=O)C(C)(C)C)c5)c4n3)cc2F)CC1 | 6.81 | 7.24 | 7.94 | 6.62 | 6.50 | 6.64 | 7.05 | 6.99
6 | CN(C)C1CCN(c2ccc(Nc3ncc4ccn(-c5cccc(NS(=O)(=O)C(C)(C)C)c5)c4n3)cc2)CC1 [drawing 317] | 7.21 | 6.40 | 8.14 | 6.76 | 6.20 | 6.39 | 6.79 | 7.09
7 | CC(C)(C)S(=O)(=O)Nc1cccc(-c2csc3cnc(Nc4ccc5c(c4)CCN4CCNCC54)nc23)c1 (stereo not shown) | 6.88 | 7.36 | 8.70 | 6.96 | 6.31 | 6.55 | 7.00 | 7.74
8 | CN1CCN(c2ccc(Nc3ncc4ccn(-c5cccc(NS(=O)(=O)C6CC6)c5)c4n3)cc2)CC1 [drawing 278] | 6.14 | 6.61 | 8.60 | 6.45 | 5.72 | 5.60 | 6.08 | 7.16
9 | O=S(=O)(Nc1cccc(-n2ccc3cnc(Nc4ccc(N5CCNCC5)cc4)nc32)c1)C1CC1 [drawing 296] | 6.24 | 6.73 | 8.70 | 6.17 | 5.53 | 5.92 | 6.04 | 7.82
10 | CNCCNC(=O)Cc1ccc(Nc2ncc3ccn(-c4cccc(NS(=O)(=O)C(C)(C)C)c4)c3n2)cc1 | 7.17 | 6.75 | 7.30 | 6.69 | 6.24 | 6.57 | 6.93 | 6.60
11 | CC(C)(C)S(=O)(=O)Nc1cc(-n2ccc3cnc(Nc4cc(F)c5c(c4)CC4CNCCN54)nc32)ccc1F (stereo not shown) [drawing 465] | 6.92 | 5.00 | 7.21 | 6.94 | 6.45 | 6.53 | 7.08 | 6.55
12 | CC(C)(C)S(=O)(=O)Nc1cccc(-n2ccc3cnc(Nc4ccc(C(=O)N5CCNCC5)c(F)c4)nc32)c1 [drawing 463] | 7.27 | 6.23 | 7.55 | 7.09 | 6.43 | 6.71 | 6.91 | 6.48
13 | CN1CCN(c2ccc(Nc3ncc4ccn(-c5cccc(NS(=O)(=O)C(C)(C)C)c5)c4n3)cc2C#N)CC1 | 6.31 | 5.96 | 7.72 | 6.42 | 5.94 | 6.00 | 6.61 | 6.47
14 | CN1CCN(c2ccc(Nc3ncc4ccn(-c5cccc(NS(=O)(=O)C(C)(C)C)c5)c4n3)cc2F)CC1 | 6.31 | 6.37 | 7.74 | 6.36 | 5.54 | 5.95 | 6.19 | 6.90
15 | CNC1CCN(c2ccc(Nc3ncc4ccn(-c5ccc(F)c(NS(=O)(=O)C(C)(C)C)c5)c4n3)cc2F)CC1 [drawing 456] | 7.07 | 5.82 | 7.41 | 6.91 | 6.44 | 6.73 | 7.01 | 6.76
16 | CC(C)(C)S(=O)(=O)Nc1cc(-n2ccc3cnc(Nc4ccc(N5CCNCC5)c(F)c4)nc32)ccc1F [drawing 428] | 7.19 | 5.68 | 7.48 | 7.22 | 6.67 | 6.93 | 7.23 | 6.57
17 | CC(C)(C)S(=O)(=O)Nc1cccc(-c2csc3cnc(Nc4ccc(N5CCNCC5)c(F)c4)nc23)c1 | 6.71 | 6.77 | 8.70 | 6.53 | 6.30 | 6.51 | 6.74 | 7.21
18 | CN(C)C1CCN(c2ccc(Nc3ncc4scc(-c5ccc(F)c(NS(=O)(=O)C6(C)CC6)c5)c4n3)cc2F)CC1 | 6.69 | 6.13 | 7.96 | 6.63 | 6.22 | 6.48 | 6.71 | 7.22
19 | COc1cc(Nc2ncc3ccn(-c4cccc(NS(=O)(=O)C(C)(C)C)c4)c3n2)ccc1N1CCNCC1 | 6.89 | 6.56 | 8.55 | 6.40 | 6.26 | 6.49 | 6.85 | 6.95
20 | CN(C)C1CCN(c2ccc(Nc3ncc4scc(-c5ccc(F)c(NS(=O)(=O)C(C)(C)C)c5)c4n3)cc2F)CC1 | 7.04 | 6.03 | 8.10 | 6.97 | 6.53 | 6.75 | 6.96 | 7.01
